The IC50 is the concentration that gives 50% inhibition. High values mean weaker potency in that assay, low ones greater potency in that assay.

Results on 7 molecules are retold here after US11912723B2, “KRAS modulators and uses thereof” (Quanta Therapeutics, Inc., priority 2022, dated 2024).

Some results are limits rather than exact numbers.

The target in experiment [1] is T1, GST-tagged KRAS G12D (2-169) (Homo sapiens, UniProt P01116, G12D).
T1 construct: GST-tagged KRAS^G12D (2-169, Reaction Biology, MSC-11-539); purchased Reaction Biology MSC-11-539 (KRAS G12D); MSC-11-502 (SOS1cat)
As to the kind of experiment: Nucleotide exchange assay (NEA), HTRF of SOS-mediated GTP-DY-647P1 binding. As to conditions: 5 nM GST-KRAS G12D, 20 nM SOScat, 150 nM GTP; compound 1 h at RT. The class given is biochemical. The essentials:
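SOS1cat (564-1049)-driven loading of GTP-DY-647P1 onto KRAS G12D, read by HTRF with anti-GST Tb cryptate donor; compound preincubated with KRAS 1 h at RT. Final 5 nM KRAS, 20 nM SOScat, 150 nM GTP, pH 7.3 HEPES buffer; read up to 90 min at RT. Blanked to no-SOS1; 4-parameter fit of % inhibition.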
On the technique in general: Time-resolved FRET reads energy transfer from a long-lived donor to a nearby acceptor.

The next experiment has as its target T2, KRAS G12D/RAF1 (Homo sapiens, UniProt P01116, G12D).
T2 construct: KRAS (1-169) proteins were expressed in E. coli at 18° C; His6-MBP (N, cleaved yes); made in house; host or cells: E. coli
The experiment in a line: Protein-protein interaction (PPI) HTRF assay KRAS G12D/RAF1. The experiment is classed as binding. As to conditions: KRAS G12D/RAF1, GppNHp-loaded KRAS; 30 minutes pre-incubation. The essentials: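 Biotinylated GppNHp-loaded RAS (1-169) on streptavidin-d2 acceptor and His-RAF1 RBD (52-131) on anti-His Tb donor, each prepared at 16 nM in pH 7.5 Tris buffer. Compound preincubated with RAS 30 min, then RAF1 added for 1 h at room temperature. IC50 from HTRF 665/615 ratio, normalized to no compound (0%) and untagged RAF1 (100%).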

T1 sequence (P01116 2-169 isoform P01116-2 G12D): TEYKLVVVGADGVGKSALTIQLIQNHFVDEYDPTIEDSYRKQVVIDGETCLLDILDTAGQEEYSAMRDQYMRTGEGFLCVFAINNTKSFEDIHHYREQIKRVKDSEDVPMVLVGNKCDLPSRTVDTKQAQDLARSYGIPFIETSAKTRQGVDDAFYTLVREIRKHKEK
T2 sequence (P01116 1-169 isoform P01116-2 G12D): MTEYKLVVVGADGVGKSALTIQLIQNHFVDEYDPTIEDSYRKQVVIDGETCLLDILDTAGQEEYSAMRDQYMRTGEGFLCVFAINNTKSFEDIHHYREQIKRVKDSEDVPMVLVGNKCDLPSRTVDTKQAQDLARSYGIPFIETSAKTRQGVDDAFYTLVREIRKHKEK

For the molecule `COc1cccc(-c2cc3n(n2)CCCN(c2nc(OC[C@@]45CCCN4C[C@H](F)C5)nc4c2CN(C)[C@@]2(CCCc5ccccc52)C4)C3)n1` [Compound 89, (7S)-2-[[(2R,8S)-2-fluoro-1,2,3,5,6,7-hexahydropyrrolizin-8-yl]methoxy]-4-[2-(6-methoxy-2-pyridyl)-4,6,7,8-tetrahydropyrazolo[1,5-a][1,4]diazepin-5-yl]-6-methyl-spiro[5,8-dihydropyrido[4,3-d]pyrimidine-7,1′-tetralin]], the values for the IC50 (in experiment [1]; against KRAS G12D/RAF1) were 0.1 to 1 µM and above 100 µM, respectively.
The corresponding values for `CN1Cc2c(nc(OC[C@@]34CCCN3C[C@H](F)C4)nc2N2CCn3cncc3C2)C[C@]12CCCc1ccccc12` [Compound 91, (7S)-4-(6,8-dihydro-5H-imidazo[1,5-a]pyrazin-7-yl)-2-[[(2R,8S)-2-fluoro-1,2,3,5,6,7-hexahydropyrrolizin-8-yl]methoxy]-6-methyl-spiro[5,8-dihydropyrido[4,3-d]pyrimidine-7,1′-tetralin]] are 1 to 20 µM and above 100 µM.
In the same order, the values of `CN1Cc2c(nc(OC[C@@]34CCCN3C[C@H](F)C4)nc2N2CCCn3nc(-c4cccc(O)n4)cc3C2)C[C@]12CCCc1ccccc12` [Compound 92, 6-[5-[(7S)-2-[[(2R,8S)-2-fluoro-1,2,3,5,6,7-hexahydropyrrolizin-8-yl]methoxy]-6-methyl-spiro[5,8-dihydropyrido[4,3-d]pyrimidine-7,1′-tetralin]-4-yl]-4,6,7,8-tetrahydropyrazolo[1,5-a][1,4]diazepin-2-yl]pyridin-2-ol] are 0.1 to 1 µM and above 100 µM.
As to `CN1Cc2c(nc(OC[C@@]34CCCN3C[C@H](F)C4)nc2N2CCCn3nc(-c4ccccn4)c(Cl)c3C2)C[C@]12CCCc1ccccc12` [Compound 93, (7S)-4-[3-chloro-2-(2-pyridyl)-4,6,7,8-tetrahydropyrazolo[1,5-a][1,4]diazepin-5-yl]-2-[[(2R,8S)-2-fluoro-1,2,3,5,6,7-hexahydropyrrolizin-8-yl]methoxy]-6-methyl-spiro[5,8-dihydropyrido[4,3-d]pyrimidine-7,1′-tetralin]], the IC50 in experiment [1] was below 0.01 µM; against KRAS G12D/RAF1, 10 to 100 µM.
Turning to `C[C@@H]1Cn2cncc2CN1c1nc(OC[C@@]23CCCN2C[C@H](F)C3)nc2c1CN(C)[C@@]1(CCCc3ccccc31)C2` [Compound 94, (7S)-2-[[(2R,8S)-2-fluoro-1,2,3,5,6,7-hexahydropyrrolizin-8-yl]methoxy]-6-methyl-4-[(6R)-6-methyl-6,8-dihydro-5H-imidazo[1,5-a]pyrazin-7-yl]spiro[5,8-dihydropyrido[4,3-d]pyrimidine-7,1′-tetralin]], the values for the half-inhibitory concentration (IC50) (in experiment [1]; against KRAS G12D/RAF1) were 1 to 20 µM and above 100 µM, respectively.
In the same order, the values of `CN(C)C(=O)c1nn2c(c1Cl)CN(c1nc(OCC3(CN4CCOCC4)CC3)nc3c1CN(C)[C@@]1(CCCc4ccccc41)C3)CCC2` [Compound 95, 3-chloro-N,N-dimethyl-5-[(7S)-6-methyl-2-[[1-(morpholinomethyl)cyclopropyl]methoxy]spiro[5,8-dihydropyrido[4,3-d]pyrimidine-7,1′-tetralin]-4-yl]-4,6,7,8-tetrahydropyrazolo[1,5-a][1,4]diazepine-2-carboxamide] are below 0.01 µM and above 100 µM.
The corresponding values for `CN1Cc2c(nc(OC[C@@]34CCCN3C[C@H](F)C4)nc2N2CCCn3nc(CC#N)c(Cl)c3C2)C[C@]12CCCc1ccccc12` [Compound 98, 2-[3-chloro-5-[(7S)-2-[[(2R,8S)-2-fluoro-1,2,3,5,6,7-hexahydropyrrolizin-8-yl]methoxy]-6-methyl-spiro[5,8-dihydropyrido[4,3-d]pyrimidine-7,1′-tetralin]-4-yl]-4,6,7,8-tetrahydropyrazolo[1,5-a][1,4]diazepin-2-yl]acetonitrile] are below 0.01 µM and above 100 µM.
